Data published in ChEMBL document CHEMBL1201862, “PubChem BioAssay data set” (2004).
Active and inactive are the calls of the source.

Columns and labels:
[1] = growth inhibition of PfATP4-mutant resistant parasites – NITD609-resistant line, SYBR Green, dry powder, dose response (AID 1159571); type: functional, cell-based;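 further: parasites synchronized at ring stage by sorbitol before testing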
[2] = toxicity to human HepG2 hepatoma cells – cell-based, plate reader, dry powder samples, cytotoxicity control, dose response (AID 1159569); type: functional;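 further: inhibitor potency with signal falling toward the positive control level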
[3] = growth inhibition of yeast DHODH-expressing 3D7 parasites – SYBR Green, dry powder samples, dose response (AID 1159570); type: functional, cell-based;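 further: parasite growth measured after 72 hours of compound exposure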
[4] = P. falciparum Dd2 growth inhibitors, dose response, SYBR Green, cherry-picked samples (AID 1159567); type: functional, cell-based
[5] = Dd2 malaria parasite growth inhibition potency – SYBR Green, dry powder samples, dose response (AID 1159566); type: functional, cell-based;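 further: potency for growth inhibition with lower SYBR green DNA signal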
[6] = Plasmodium falciparum Dd2 Sybr green parasite growth Measured in Cell-Based and Microorganism Combination System Using Plate Reader - 2153-01_Inhibitor_Dose_DryPowder_Activity_Set3.; type: functional
[7] = target: Heat shock protein HSP 90-alpha (Homo sapiens, UniProt P07900); assay: Luminescence-based dose response biochemical high throughput screening assay for inhibitors of the Heat Shock Protein 90 (HSP90). [Related pubchem assays: 1831 (Summary AID.), 1846 (Confirmation screen.), 1789 (Primary screen.)]
[8] = target: Glucose-6-phosphate 1-dehydrogenase (Homo sapiens, UniProt P11413); assay: inhibition of Homo sapiens G6PD, dose series – biochemical, fluorescence, selectivity assay for P. falciparum G6PD inhibitor project, dose response (AID 504792); type: functional
Protein skinhead-1 = target: T1, Protein skinhead-1 (Caenorhabditis elegans, UniProt P34707); type: functional
T1 sequence (P34707 whole entry): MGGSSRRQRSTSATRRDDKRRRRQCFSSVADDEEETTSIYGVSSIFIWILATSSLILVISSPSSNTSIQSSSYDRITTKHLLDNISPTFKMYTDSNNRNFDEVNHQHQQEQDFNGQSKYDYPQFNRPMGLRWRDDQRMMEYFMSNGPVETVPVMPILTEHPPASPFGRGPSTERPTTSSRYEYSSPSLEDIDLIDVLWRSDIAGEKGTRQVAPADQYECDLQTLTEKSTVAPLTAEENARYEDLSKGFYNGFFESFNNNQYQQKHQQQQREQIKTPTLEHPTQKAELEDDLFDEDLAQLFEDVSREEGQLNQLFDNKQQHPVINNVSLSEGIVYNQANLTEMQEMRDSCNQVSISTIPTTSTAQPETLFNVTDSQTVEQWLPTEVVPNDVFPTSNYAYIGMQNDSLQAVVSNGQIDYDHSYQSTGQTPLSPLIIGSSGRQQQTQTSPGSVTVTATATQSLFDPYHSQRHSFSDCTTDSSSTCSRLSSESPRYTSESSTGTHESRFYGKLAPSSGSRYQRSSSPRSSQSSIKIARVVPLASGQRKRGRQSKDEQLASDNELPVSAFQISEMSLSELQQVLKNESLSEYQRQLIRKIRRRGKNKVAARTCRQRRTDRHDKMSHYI

[9] = rise of 2N DNA cells, HeLa – IC50, dose response (AID 1117349); type: functional, cell-based
Bcl-2-related protein A1 [10] = target: T2, Bcl-2-related protein A1 (Mus musculus, UniProt Q07440); assay: small-molecule antagonists of Bfl-1/BH3 interaction – biochemical, TR-FRET, mouse Bfl-1, confirmation (AID 621);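 further: TR-FRET binding of GST-Bfl-1 to FITC-labelled Bid peptide via terbium antibody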
T2 sequence (Q07440 whole entry): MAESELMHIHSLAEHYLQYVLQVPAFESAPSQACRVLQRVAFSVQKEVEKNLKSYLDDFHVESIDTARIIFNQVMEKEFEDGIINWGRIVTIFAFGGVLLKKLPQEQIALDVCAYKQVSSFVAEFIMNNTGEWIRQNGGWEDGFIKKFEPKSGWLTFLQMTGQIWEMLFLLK

[11] = reduction of Shn3 3'UTR-driven luciferase in osteoblasts – cell-based, Clone20 osteoblasts, firefly luciferase, cherry-picked, dose response (AID 624132); type: functional;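 further: firefly luciferase luminescence from reporter carrying the Shn3 3'UTR in osteoblasts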
[12] = glucagon-like peptide-1 release potency in STC-1, concentration-response, half-maximal inhibitory concentration in the STC-1 line (AID 1117345); type: functional, cell-based
Bcl-2-related protein A1 [13] = target: T2, Bcl-2-related protein A1; assay: displacement of Bid BH3 peptide from Bfl-1 – biochemical, fluorescence polarization, FITC-Bid, mouse, primary screen (AID 432)
[14] = Potency on glucagon-like peptide 1 release, dose-response in NCI-H716 cell line, half maximal inhibitory concentration (AID 1117344); type: functional, cell-based
[15] = rise of 4N DNA cells, HeLa – IC50, dose response (AID 1117351); type: functional, cell-based
[16] = non-specific 3'UTR reporter inhibition in Clone20-Shn3RL – cell-based, Renilla luciferase, cherry-picked, counter-screen for Shn3 inhibitor project, dose response (AID 624133); type: functional
[17] = target: Aryl hydrocarbon receptor (Homo sapiens, UniProt P35869); assay: Luminescence-based cell-based high throughput dose response assay for activators of the Aryl Hydrocarbon Receptor (AHR). [Related pubchem assays: 2796 (Primary screen (AHR activators in singlicate)), 2845 (Confirmation screen (AHR activators in triplicate)), 434939 (Counterscreen (PXR activators in triplicate)), 2804 (Summary (AHR activators))]; type: ADME
NADPH oxidase 1 = NADPH oxidase 1 (Homo sapiens, UniProt Q9Y5S8); assay: Late-stage luminescence-based cell-based dose response assay to identify inhibitors of NADPH oxidase 1 (NOX1): Synthesized analogs 2.; type: functional
[18] = Dd2 parasite growth inhibition in erythrocytes – SYBR Green, dry powder samples, set 9, dose response (AID 1159568); type: functional, cell-based
[19] = target: Transitional endoplasmic reticulum ATPase (Homo sapiens, UniProt P55072, C522A); assay: Luminescence counterscreen assay for p97 inhibitors: dose response biochemical high throughput screening assay to identify inhibitors of the C522A mutant p97 ATPase: synthesized compounds. [Related pubchem assays: 1481, 1517, 1551 ]
[20] = target: Transitional endoplasmic reticulum ATPase (Homo sapiens, UniProt P55072); assay: Luminescence dose response biochemical high throughput screening assay for inhibitors of the p97 ATPase: synthesized compounds. [Related pubchem assays: 1481, 1517 ]
[21] = target: Protein-tyrosine kinase 2-beta (Homo sapiens, UniProt Q14289);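 further: potency of inhibitors of PYK2 kinase phosphorylation of poly-GT substrate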
Genome polyprotein = Genome polyprotein (Hepatitis C virus, UniProt Q2Q167); assay: disruption of hepatitis C core self-association – biochemical, TR-FRET, dose response (AID 2159); parameters: species or system Hepacivirus hominis;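 further: blocks dimerization of HCV core protein measured by TR-FRET between tagged core106 pairs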
Genome polyprotein, sequence (Q2Q167 whole entry): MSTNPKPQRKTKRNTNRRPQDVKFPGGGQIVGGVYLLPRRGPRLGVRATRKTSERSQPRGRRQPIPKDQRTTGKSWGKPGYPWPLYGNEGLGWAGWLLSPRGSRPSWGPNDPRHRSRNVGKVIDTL

Transitional endoplasmic reticulum ATPase (Homo sapiens, UniProt P55072), sequence (P55072 whole entry): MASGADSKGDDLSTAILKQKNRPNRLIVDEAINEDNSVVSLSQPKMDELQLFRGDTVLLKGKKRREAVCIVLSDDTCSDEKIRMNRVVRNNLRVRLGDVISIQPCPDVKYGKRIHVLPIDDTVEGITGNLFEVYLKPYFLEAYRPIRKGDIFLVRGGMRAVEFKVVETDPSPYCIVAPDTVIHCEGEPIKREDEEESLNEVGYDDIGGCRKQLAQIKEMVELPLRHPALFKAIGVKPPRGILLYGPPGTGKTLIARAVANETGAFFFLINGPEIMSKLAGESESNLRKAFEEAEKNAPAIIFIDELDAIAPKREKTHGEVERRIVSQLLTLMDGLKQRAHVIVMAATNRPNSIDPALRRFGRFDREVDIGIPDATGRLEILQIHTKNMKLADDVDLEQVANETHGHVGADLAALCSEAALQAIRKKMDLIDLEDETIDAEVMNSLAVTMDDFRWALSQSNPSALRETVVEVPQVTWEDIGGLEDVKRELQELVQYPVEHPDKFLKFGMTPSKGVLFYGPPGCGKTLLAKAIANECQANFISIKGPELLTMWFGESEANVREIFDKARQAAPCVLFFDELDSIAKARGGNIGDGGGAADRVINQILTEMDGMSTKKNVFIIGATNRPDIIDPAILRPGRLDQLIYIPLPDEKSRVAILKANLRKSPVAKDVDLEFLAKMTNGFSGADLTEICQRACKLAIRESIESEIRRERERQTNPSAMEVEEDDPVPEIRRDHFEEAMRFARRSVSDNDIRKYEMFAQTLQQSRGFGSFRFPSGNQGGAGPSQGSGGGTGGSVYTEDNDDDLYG
Aryl hydrocarbon receptor, sequence (P35869 whole entry): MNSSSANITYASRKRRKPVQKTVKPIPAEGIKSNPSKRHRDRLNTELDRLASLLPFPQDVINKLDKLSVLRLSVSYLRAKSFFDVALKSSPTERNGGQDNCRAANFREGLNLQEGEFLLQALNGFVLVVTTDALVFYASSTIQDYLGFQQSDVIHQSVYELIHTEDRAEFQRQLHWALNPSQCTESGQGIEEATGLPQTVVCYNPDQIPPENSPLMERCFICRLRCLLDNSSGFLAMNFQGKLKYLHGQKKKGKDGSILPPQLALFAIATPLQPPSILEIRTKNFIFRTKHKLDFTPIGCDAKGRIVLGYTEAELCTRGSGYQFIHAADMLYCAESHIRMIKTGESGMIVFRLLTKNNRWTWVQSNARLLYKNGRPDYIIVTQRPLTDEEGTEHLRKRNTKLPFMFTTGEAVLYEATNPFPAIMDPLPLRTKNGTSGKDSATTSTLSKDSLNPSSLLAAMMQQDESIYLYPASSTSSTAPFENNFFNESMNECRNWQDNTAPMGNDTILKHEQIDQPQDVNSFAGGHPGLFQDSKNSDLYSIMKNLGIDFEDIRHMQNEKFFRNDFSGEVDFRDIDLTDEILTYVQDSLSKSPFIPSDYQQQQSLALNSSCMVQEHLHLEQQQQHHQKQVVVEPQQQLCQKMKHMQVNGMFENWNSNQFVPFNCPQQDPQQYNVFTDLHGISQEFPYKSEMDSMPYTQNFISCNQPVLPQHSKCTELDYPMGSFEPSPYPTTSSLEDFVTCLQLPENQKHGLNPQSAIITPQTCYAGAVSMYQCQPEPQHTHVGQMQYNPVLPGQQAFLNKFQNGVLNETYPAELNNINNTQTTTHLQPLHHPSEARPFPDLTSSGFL
Protein-tyrosine kinase 2-beta, sequence (Q14289 whole entry): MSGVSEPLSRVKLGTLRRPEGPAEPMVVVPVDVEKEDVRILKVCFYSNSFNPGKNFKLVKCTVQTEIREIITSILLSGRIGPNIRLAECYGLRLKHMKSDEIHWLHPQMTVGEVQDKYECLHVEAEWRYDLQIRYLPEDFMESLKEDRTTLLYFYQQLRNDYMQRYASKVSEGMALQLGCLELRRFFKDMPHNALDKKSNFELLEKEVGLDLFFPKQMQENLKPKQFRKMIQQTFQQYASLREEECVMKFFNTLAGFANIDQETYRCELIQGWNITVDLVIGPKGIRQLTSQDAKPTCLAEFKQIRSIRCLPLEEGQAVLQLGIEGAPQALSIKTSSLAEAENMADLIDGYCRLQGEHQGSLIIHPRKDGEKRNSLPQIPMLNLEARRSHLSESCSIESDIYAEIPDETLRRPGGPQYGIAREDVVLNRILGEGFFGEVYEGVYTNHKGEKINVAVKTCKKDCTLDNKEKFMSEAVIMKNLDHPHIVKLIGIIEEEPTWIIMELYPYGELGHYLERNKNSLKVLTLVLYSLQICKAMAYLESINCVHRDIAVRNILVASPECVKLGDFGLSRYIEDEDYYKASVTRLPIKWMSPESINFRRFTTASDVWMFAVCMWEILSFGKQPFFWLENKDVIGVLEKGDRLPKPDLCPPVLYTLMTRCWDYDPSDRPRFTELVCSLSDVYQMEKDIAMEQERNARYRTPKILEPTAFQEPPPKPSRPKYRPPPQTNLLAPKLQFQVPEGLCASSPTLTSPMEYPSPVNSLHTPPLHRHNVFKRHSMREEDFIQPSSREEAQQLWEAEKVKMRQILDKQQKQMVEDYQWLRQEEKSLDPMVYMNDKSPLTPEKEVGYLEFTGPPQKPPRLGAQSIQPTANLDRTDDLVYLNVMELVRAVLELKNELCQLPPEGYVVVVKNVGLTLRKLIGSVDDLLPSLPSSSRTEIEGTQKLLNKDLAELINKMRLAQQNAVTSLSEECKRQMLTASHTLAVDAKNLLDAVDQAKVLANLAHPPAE
Glucose-6-phosphate 1-dehydrogenase, sequence (P11413 whole entry): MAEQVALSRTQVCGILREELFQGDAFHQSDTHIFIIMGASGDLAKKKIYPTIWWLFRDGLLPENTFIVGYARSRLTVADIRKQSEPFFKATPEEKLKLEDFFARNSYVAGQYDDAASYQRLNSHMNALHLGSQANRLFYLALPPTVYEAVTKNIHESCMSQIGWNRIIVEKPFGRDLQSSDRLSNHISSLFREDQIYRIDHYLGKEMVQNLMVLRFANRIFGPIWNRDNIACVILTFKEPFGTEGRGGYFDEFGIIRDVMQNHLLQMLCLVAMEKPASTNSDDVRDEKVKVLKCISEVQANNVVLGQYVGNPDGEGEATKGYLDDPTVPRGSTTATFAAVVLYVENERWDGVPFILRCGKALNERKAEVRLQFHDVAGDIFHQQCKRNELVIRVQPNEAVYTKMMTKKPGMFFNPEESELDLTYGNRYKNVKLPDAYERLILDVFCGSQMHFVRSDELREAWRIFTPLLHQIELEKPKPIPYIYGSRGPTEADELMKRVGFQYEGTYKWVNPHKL
Transitional endoplasmic reticulum ATPase (Homo sapiens, UniProt P55072, C522A), sequence (P55072 2-806 C522A limits assumed): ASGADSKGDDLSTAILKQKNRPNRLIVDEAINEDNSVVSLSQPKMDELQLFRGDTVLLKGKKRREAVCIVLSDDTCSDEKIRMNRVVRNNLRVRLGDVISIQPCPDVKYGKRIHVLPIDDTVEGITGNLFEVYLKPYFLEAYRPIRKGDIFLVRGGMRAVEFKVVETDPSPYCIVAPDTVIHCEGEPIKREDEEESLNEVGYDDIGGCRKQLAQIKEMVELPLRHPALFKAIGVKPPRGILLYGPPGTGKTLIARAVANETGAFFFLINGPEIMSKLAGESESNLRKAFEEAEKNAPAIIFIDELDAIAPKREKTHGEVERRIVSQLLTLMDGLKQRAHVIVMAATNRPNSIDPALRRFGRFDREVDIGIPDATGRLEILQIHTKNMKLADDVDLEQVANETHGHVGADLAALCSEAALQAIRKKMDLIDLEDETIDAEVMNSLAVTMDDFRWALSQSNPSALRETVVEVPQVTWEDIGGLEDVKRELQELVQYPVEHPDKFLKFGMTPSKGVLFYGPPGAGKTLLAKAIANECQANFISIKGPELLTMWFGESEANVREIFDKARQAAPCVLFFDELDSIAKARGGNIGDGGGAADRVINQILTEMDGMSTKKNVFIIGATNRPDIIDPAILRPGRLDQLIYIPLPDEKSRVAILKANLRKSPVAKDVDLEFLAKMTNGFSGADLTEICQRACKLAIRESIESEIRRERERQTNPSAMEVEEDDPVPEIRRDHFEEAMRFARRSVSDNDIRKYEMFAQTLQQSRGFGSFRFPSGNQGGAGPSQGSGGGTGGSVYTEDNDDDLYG
NADPH oxidase 1, sequence (Q9Y5S8 whole entry): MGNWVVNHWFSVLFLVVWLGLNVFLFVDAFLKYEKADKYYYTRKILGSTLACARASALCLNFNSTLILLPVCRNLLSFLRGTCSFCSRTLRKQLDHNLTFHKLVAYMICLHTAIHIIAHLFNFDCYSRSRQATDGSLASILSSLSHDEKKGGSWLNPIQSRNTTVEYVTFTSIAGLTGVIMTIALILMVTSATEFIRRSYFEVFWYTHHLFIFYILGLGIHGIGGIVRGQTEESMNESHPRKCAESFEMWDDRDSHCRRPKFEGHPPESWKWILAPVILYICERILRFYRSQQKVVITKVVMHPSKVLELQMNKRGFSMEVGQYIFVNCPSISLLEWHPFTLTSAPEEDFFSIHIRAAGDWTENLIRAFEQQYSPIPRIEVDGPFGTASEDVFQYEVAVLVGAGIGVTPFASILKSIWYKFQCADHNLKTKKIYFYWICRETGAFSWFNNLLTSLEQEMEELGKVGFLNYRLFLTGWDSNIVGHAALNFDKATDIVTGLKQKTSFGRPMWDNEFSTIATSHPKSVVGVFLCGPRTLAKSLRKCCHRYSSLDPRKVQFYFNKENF

SMILES: CCCC(=O)Nc1ccc2c(c1)OC[C@@H](C)N(Cc1cccc(F)c1)C[C@@H](C)[C@H](OC)CN(C)C2=O
- AC50 [1]: 2.24 µM (active)
- AC50 [2]: 58.9 µM (active)
- AC50 [3]: 5.76 µM (active)
- AC50 [4]: 1.09 µM (active)
- AC50 [5]: 0.884 µM (active)
- AC50 [6]: 1.82 µM (active)

SMILES: [O-]/[N+](=C\c1ccco1)c1ccc(Cl)cc1
- IC50 [7]: 4.31 µM (active)
- IC50 [8]: 27.6 µM (inactive)
- IC50 (Protein skinhead-1): > 100 µM (inactive)

SMILES: CC[C@H](C)C(=O)O[C@H]1C[C@@H](C)C=C2C=C[C@H](C)[C@H](CC[C@@H]3C[C@@H](O)CC(=O)O3)[C@H]21 [LOVASTATIN]
- IC50 [9]: > 10 µM (inactive)
- IC50 (Bcl-2-related protein A1 [10]): > 100 µM (not active)
- AC50 [11]: 1.62 µM (active)
- IC50 [12]: > 40 µM (inactive)
- IC50 (Bcl-2-related protein A1 [13]): > 100 µM (not active)
- IC50 [14]: 32.9 µM (inactive)
- IC50 [15]: > 10 µM (inactive)
- AC50 [16]: 4.74 µM (active)

SMILES: CCCCc1cc2c(c(NC(C)=O)n1)c(=O)oc1ccccc12
- EC50 [17]: 3.25 µM (active)

SMILES: CN1c2ccccc2Sc2cc(N=[N+]=[N-])ccc21
- IC50 (NADPH oxidase 1): 0.73 µM (active)

SMILES: COc1cccc(-c2cccc(-c3nc(C(=O)NCc4ccc(Oc5ccccc5)cc4)cc4c3[C@@H](CCO)N([S+]([O-])C(C)(C)C)C4)c2)c1 (stereo partly drawn)
- AC50 [1]: 0.449 µM (active)
- AC50 [3]: 0.826 µM (active)
- AC50 [4]: 0.671 µM (active)
- AC50 [18]: 0.447 µM (active)
- AC50 [5]: 0.237 µM (active)

SMILES: N#CC(C#N)=Cc1c2ccccc2cc2ccccc12
- IC50 [19]: > 50 µM (not active)
- IC50 [20]: > 50 µM (not active)

SMILES: CCOC(=O)C1=C(c2ccccc2)OC(N)=C(C#N)C1C1CCCCC1 (stereo not drawn)
- IC50 [21]: > 69.5 µM (not active)

SMILES: COc1ccc(S(=O)(=O)N2CCOCC2)cc1NC(=O)c1cccc(-n2cccc2)c1
- IC50 (Genome polyprotein): > 49.8 µM (not active)
